# Experimental data reported in paper PMC6449043 (ACS chemical biology, 2018).
# Target: ndSQR (sulfide quinone oxidoreductase in nanodiscs) (Homo sapiens, UniProt Q9Y6N5)
# Assay: spectral titration of charge-transfer complex at […] nm
# Assay type: binding
# Sequence of ndSQR (sulfide quinone oxidoreductase in nanodiscs) (Q9Y6N5 42-450): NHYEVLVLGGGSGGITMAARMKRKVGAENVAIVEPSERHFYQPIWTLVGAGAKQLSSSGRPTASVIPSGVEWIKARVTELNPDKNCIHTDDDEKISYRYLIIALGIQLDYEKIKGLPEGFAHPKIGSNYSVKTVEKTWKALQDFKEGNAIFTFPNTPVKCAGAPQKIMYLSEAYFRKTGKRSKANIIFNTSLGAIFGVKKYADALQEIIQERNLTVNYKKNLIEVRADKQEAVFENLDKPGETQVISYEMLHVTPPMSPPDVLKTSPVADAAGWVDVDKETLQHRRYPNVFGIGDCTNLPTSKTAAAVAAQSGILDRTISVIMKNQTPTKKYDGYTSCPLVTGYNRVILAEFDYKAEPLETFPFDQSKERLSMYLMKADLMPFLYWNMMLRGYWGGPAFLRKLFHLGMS
structure (smiles),measurement,value
CS [MeSH],Kd,38 ± 1 µM
